What is called IC50 is the concentration that gives 50% inhibition. Low readings indicate inhibition by little substance, high ones a need for much substance.

SMILES strings stand for the structures. Bounds are passed on as bounds.

A short description of data set [1]: Murine liver microsome stability. The data set is classed as in vitro ADME. Particulars: % remaining after 30 min at 37° C. in the presence of NADPH. A general note: Microsomes from liver hold many membrane-bound enzymes, among them those of drug oxidation.
The subject of data set [2] is HHV-6B Z29. The data set can be described thus: Herpes virus panel neutralization, HHV-6B. The data set is classed as cell-based, Human herpes virus 6B. As to the method: To determine the specificity of MBX-4992, additional neutralization experiments were conducted using a panel of herpes viruses performed in the presence of MBX-4992. […] Collectively, the antiviral activity of MBX-4992 is equivalent to that of GCV indicating specific inhibition of CMV replication.

Data set [3] has as its target CYP3A4 (Homo sapiens, UniProt P08684). The data set can be described thus: CYP3A4 inhibition at 10 μM. The data set is classed as in vitro ADME. The note with it: % inhibition of CYP3A4 at 10 μM.
The subject of data set [4] is AD169^R. Kind of data set: Cells pre-incubation / washout study. It is filed as cell-based, Human cytomegalovirus. As to the method: (C) NHDF cells were pre-incubated with DMSO, MBX-4992 or heparin prior to virus addition. After addition of AD169^R (MOI 0.2) for 30 min, media was either unchanged or replaced with media containing DMSO, MBX-4992, or heparin. Virus infection was quantified at 24 hpi by GFP fluorescence. Percent infection was normalized to untreated cells. Statistical tests were performed using ordinary one-way ANOVA with multiple comparisons to DMSO treated cells as a control and a Dunnett's post-test: *, p<0.05; ****, p<0.0001.
NHDF cells (10^4) plated overnight in a 96-well plate were pretreated with MBX-4992 (10 μM), heparin (50 μg/mL) or DMSO for 1 hour at 37° C. The plate was then placed at 4° C. for 5 minutes followed by the addition of AD169^R CMV virus for 30 minutes. 2/3rd of the samples were aspirated post binding. Half of those samples received DMSO media, regardless of the drug the cells were previously exposed to. The remaining wells received either MBX-4992 (10 μM) or Heparin (50 μg/mL) overnight. At 18 hpi, the cells were fixed with 4% paraformaldehyde, stained with a rabbit anti-IE1 antibody followed by an anti-rabbit Alexa 647, and analyzed using the Celigo cytometer. The DMSO condition that was not aspirated post binding was set as 100% infection.
We next examined whether pre-treating cells with MBX-4992 can limit virus infection. Cells were pre-treated with MBX-4992 or heparin for […] followed by the addition of AD169^R for 30 min at 4° C. The cells were either washed out or unchanged as indicated and replaced with media containing DMSO, MBX-4992, or heparin followed by incubation at 37° C. At 18 hpi, virus infection was evaluated using a Celigo cytometer.

Data set [5] deals with HCMV strain AD169^R. The data set can be described thus: CMV infection (neutralization) assay, GFP/IE1 readout 24 hpi, AD169^R. The data set is classed as cell-based, Human cytomegalovirus. Particulars: Human betaherpesvirus 5, AD169, Fibroblast. As to the method:
Fibroblasts and ARPE-19 cells (10^4) were plated in 96-well plates (Greiner, Monroe, NC). The following day the cells were pretreated for 1 hour at 37° C. with increasing concentrations of the respective novel NAPA compounds described herein or DMSO in triplicate prior to infection with the respective viruses. At 18 hours post infection (hpi) cells were stained using a rabbit anti-IE1 antibody followed by an anti-rabbit Alexa 647 and measured using a Celigo Cytometer (Parsons et al., Antiviral Res., 193:105124 (2021); Stein et al., Nat. Commun., 10:2699 (2019)). Using the DMSO treated cells as 100% infection, the percent infection of the NAPA compound-treated cells was determined. The half maximal inhibitory (IC50) values were calculated using Prism9's nonlinear fit [inhibitor]-vs-response (four parameters) analysis of these averages and extrapolation to the concentration that would produce 50% infection relative to DMSO treatment.
To further evaluate the inhibitory properties of MBXC-4302 against CMV, we utilized the AD169 CMV virus strain containing the UL131-UL128 open reading frame of the HCMV strain TR and expressing EGFP (AD169^R) (Wang D. and Shenk T., Proc. Nat. Acad. Sci., USA, 102:18153-18158 (2005)) and TB40/E infection of human fibroblasts (NHDF) and ARPE-19 epithelial cells in the presence of increasing concentration of compound (FIG. 2A-D). Infection was analyzed 24 hours post infection (hpi) by measuring GFP fluorescence encoded by AD169^R or using an anti-IE1 antibody for staining TB40/E infected cells.
NAPA variants with modified groups were evaluated for inhibition of CMV infection in fibroblasts. AD169^R infected fibroblasts were treated with NAPA compounds MBX-4992, MBXC-4325, MBXC-4330, and MBXC-4336 (0-50 μM) and analyzed for infection at 24 hpi (FIG. 6A-D). The infected cells were probed for IE1 as an indication of virus infection.

The subject of data set [6] is TR, Towne, and TB40/E strains. Kind of data set: CMV infection assay of MBXC-4336 with further strains. It is filed as cell-based, Human cytomegalovirus. Particulars: NHDF cells, 24 hpi, IE1 (FIG. 11F-H). How it is done:
HCMV strains AD169 (A), TB40/E Flag YFP (B), Towne (C and G), TR (D and F), Merlin (E), and TB40/E (H) infection of NHDF cells pre-treated with DMSO and 0, 1, 5, or 20 μM MBX-4992 or MBXC-4336, respectively, were assessed at 24 hpi based on IE1 expression by anti-IE1 immunostain. TB40/E (I) (MOI 0.25) and AD169^R (J) (MOI 0.25) infection of HTR-svNeo cells treated with DMSO and 0, 1, 5, or 20 μM MBX-4992 were assessed at 24 hpi based on IE1 expression by anti-IE1 immunostain. The % infection was determined using DMSO-treated as 100% infection. The error bars represent values in triplicate. Statistical tests were performed using ordinary one-way ANOVA with multiple comparisons to DMSO treated cells as a control and a Dunnett's post-test *, p<0.05; **, p<0.01; ****, p<0.0001.
Fibroblasts and ARPE-19 cells (10^4) were plated in 96-well plates (Greiner, Monroe, NC). […] At 18 hours post infection (hpi) cells were stained using a rabbit anti-IE1 antibody followed by an anti-rabbit Alexa 647 and measured using a Celigo Cytometer (Parsons et al., Antiviral Res., 193:105124 (2021); Stein et al., Nat. Commun., 10:2699 (2019)). Using the DMSO treated cells as 100% infection, the percent infection of the NAPA compound-treated cells was determined. […]

CYP3A4, sequence (P08684 whole entry, species assumed): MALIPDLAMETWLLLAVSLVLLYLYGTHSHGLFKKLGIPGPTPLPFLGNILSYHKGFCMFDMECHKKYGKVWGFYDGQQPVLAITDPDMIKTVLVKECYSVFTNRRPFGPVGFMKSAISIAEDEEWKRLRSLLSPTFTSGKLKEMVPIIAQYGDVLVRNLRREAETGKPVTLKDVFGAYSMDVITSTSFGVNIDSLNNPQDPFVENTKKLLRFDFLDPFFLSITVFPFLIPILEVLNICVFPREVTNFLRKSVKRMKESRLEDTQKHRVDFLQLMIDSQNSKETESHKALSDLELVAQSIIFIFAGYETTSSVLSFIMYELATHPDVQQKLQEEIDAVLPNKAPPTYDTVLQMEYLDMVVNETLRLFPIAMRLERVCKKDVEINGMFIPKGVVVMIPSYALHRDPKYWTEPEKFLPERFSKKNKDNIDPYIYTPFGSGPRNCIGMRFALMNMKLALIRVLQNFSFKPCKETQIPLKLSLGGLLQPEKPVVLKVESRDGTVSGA

As for `Cc1nc(Nc2ccc(NC(=O)c3ccco3)cc2)cc(N2CCCC2)n1` [MBX-4992], in data set [1], the MLMS came out at 49%. Also, in data set [2], the SI is >2. Besides, the IC50 in data set [2] (Human betaherpesvirus 6B) came to 43.7 µM. Moreover, in data set [3], the CYP is <10%. The “virus infection, drug removed” value in data set [4] (cells pre-incubated and compound sequentially removed) is “do not significantly impact infection”. For the same molecule, in data set [4] (cells pre-treated, drugs not removed or added back to washed-out cells), the “virus infection, drug not removed or added back” value was “significantly inhibited virus infection”.

In data set [5], `Cc1nc(Nc2cccc(NC(=O)c3ccco3)c2)cc(N2CCCCC2)n1` [MBXC-4336] registered a half-maximal inhibitory concentration (IC50) of 2.9 µM. Besides, the “effectiveness against further strains” value in data set [6] was “effectiveness of MBXC-4336 was validated”.

Values taken from patent US20250177392A1, “BROAD SPECTRUM INHIBITORS OF CYTOMEGALOVIRUS” (MICROBIOTIX, INC., priority 2022, published 2025).
